Laboratory results taken from patent US7378082B1, “Method for treating allergic rhinitis without adverse effects” (Inspire Pharmaceuticals, Inc., priority 2007, dated 2008).

Details: intranasal 0.05% or 0.1% nasal spray; after first dose (Day 1) and last dose (Day 14); 43 subjects
Method: Each group started with approximately 190 subjects.
Plasma epinastine levels following intranasal administration were determined.

## NC1=NCC2c3ccccc3Cc3ccccc3N12 (stereo not shown) [epinastine, 3-amino-9,13b-dihydro-1H-dibenz-[c,-f]imidazol[1,5-a]azepine]
  Plasma concentrations of epinastine: < 1 ng/mL
